Patent publication US20150272922A1, “Compounds for Reducing Glucocorticoids, and Methods of Treatment Thereof” (BIONICHE LIFE SCIENCES INC., priority 2012, published 2015)
Values after ≈ are worked out from the molar mass of the structure shown. Where two headings read alike, the source gives them in different places.

Tested on: trout head kidney tissue
Experiment: Cortisol lowering activity in trout head kidney slice model (ACTH-stimulated cortisol release)
Format: cell-based, rainbow trout (Oncorhynchus mykiss)
Conditions: for effect on cortisol production: 60 μg/ml, ACTH 1 U/ml; for EC50: Oncorhynchus mykiss; for concentration dependence of effect on cortisol production: ACTH 1 U/mL
Method: Head kidney tissue was isolated using a modified method as described by Conde-Sieira et al. (2013). Fish were anaesthetized with benzocaine (30-35 mg/L), blood was removed from the caudal vein using a 3 mL heparinized syringe and the fish euthanized by spinal transection. The vasculature was perfused through the post-cardinal vein with 40 mL of modified Hanks' medium (92.56 mM NaCl, 3.63 mM KCl, 0.55 mM MgSO4, 0.4 mM KH2PO4, 0.23 Na2HPO4, 7.5 mM Hepes, 2.81 mM NaHCO3, 0.85 mM CaCl2, 0.03% (w/v) bovine albumin serum) containing EGTA (1 mM final) adjusted to pH 7.64. The entire head kidney was removed from the trout and transferred to a 15 mL chilled glass petri dish containing modified Hanks' medium (pH 7.15). The tissue was weighed then transferred to a 35 mL chilled glass petri dish containing […] modified Hanks' medium per gram of tissue supplemented with MEM amino acid solution (50×; 2 mL/100 mL medium; Sigma—M5550), MEM non-essential amino acid solution (100×; 1 mL/100 mL medium; Sigma˜M7145) and Antibiotic-Antimycotic (100×; 1 mL/100 mL medium; Life Technologies˜15240). The tissue was chopped finely with a razor blade then separated further using a rubber policeman. The tissue was incubated at 13° C. with gentle agitation for 1.5 h to ensure basal levels of cortisol release. Optimal incubation times were determined in previous experiments (Conde-Sieira et al., 2013).
Following the 1.5 h pre-incubation, tissue was placed in 48-well culture plates (approximately 25 mg tissue pre well) along with a final volume of 250 μL modified Hanks' medium. There were two wells for each compound treatment; one control (−ACTH) and one stimulated (+ACTH) that were conducted simultaneously. Tissues were incubated with compounds of the disclosure (60 μg/mL) initiated at the same time as determined in previous experiments (Mullally et al., 2012) for 60 min at 13° C. with gentle agitation and stimulated with 1 U/mL ACTH (Sigma-Aldrich). The compounds were dissolved in ethanol and DMSO (final concentration of DMSO: 0.3% v/v, ethanol 1% v/v) by vortexing for 1 min and sonication for 30 s if the compound was not fully dissolved (determined by visual inspection). After incubation, tissue and supernatant were collected and transferred to pre-weighed 1.5 mL conical plastic tubes and centrifuged (14 000 RCF, 10 min). The supernatant was collected and transferred into a new 1.5 mL conical plastic tube and flash frozen in liquid nitrogen for subsequent cortisol assay. The mass of tissue for each sample was determined by weighing the remaining tissue in the pre-weighed tubes. Four control wells were prepared for each preparation: modified Hanks' medium, modified Hanks' medium plus ACTH (1 U/mL), DMSO/ethanol blank (0.3% v/v DMSO, 1% v/v ethanol) and DMSO/ethanol blank plus ACTH (1 U/mL).
Cortisol concentrations were assessed using a ^125I RIA kit (MP Biomedicals, Irvine, Calif., USA) as per the manufacturer's instructions and read using a Packard® Cobra™ Auto-Gamma Counter. Counts were normalized to tissue weights in each experimental well.
Data are presented as % change in ACTH-stimulated cortisol release relative to control preparation (modified Hanks' medium stimulated with ACTH) using GraphPad Prism software (GraphPad Software, Inc., La Jolla, Calif.). […] GraphPad Prism software (GraphPad Software, Inc., La Jolla, Calif.) was used to graph and calculate EC50 values by fitting a sigmoidal curve to the dose response data as well as linear regressions between Log P of compounds of the disclosure vs log cortisol responses.

[1] = read-out: calculated EC50, approximate (inhibition of cortisol production)
[2] = GraphPad Prism fit, n=3-7, FIG. 3, read-out: EC50, four parameter sigmoidal curve (ACTH-stimulated cortisol release)

| SMILES | effect on cortisol production | EC50 [1] | EC50 [2] | concentration dependence of effect on cortisol production (dose response) | EC50 (ACTH-stimulated cortisol release, dose response, FIG. 3, read-out: calculated EC50, approximate (inhibition of cortisol production)) |
| --- | --- | --- | --- | --- | --- |
| COC(=O)[C@]12CC[C@@H](C(C)O)C1C1CCC3[C@@]4(C)CC[C@H](O)C(C)(C)C4CC[C@@]3(C)[C@]1(C)CC2 (single isomer, unassigned) [Compound 1546] | lowered cortisol production | ~9 µg/mL (≈ 19 µM) | 9.5 µg/mL (≈ 20 µM) | – | – |
| CC(=O)[C@@H]1CC[C@]2(C(=O)O)CC[C@]3(C)[C@H](CC[C@@H]4[C@@]5(C)CC[C@H](O)C(C)(C)[C@@H]5CC[C@]43C)[C@@H]12 [Compound 1516, Platanic Acid] | lowered cortisol production | ~9 µg/mL (≈ 19.6 µM) | 9.4 µg/mL (≈ 20.5 µM) | inhibited cortisol production in a dose-dependent manner | – |
| C=C(C)[C@@H]1CC[C@]2(C(=O)OC)CC[C@]3(C)C(CCC4[C@@]5(C)C[C@@H](O)C(=O)C(C)(C)C5CC[C@]43C)C12 (stereo partly drawn) [Compound 1521, Methyl 2α-hydroxy betulonate] | lowered cortisol production | – | – | – | – |
| C=C(C)[C@@H]1CC[C@]2(/C=C/C(=O)OCC)CC[C@]3(C)C(CCC4[C@@]5(C)CC[C@H](O)C(C)(C)C5CC[C@]43C)C12 (some centres unmarked) [Compound 1529, Vinylogous ethyl betulinate] | lowered cortisol production | – | 116 µg/mL (≈ 227 µM) | – | – |
| COC(=O)[C@]12CC[C@@H](C)[C@H](C)[C@H]1C1=CCC3[C@@]4(C)C[C@@H](O)C(=O)C(C)(C)C4CC[C@@]3(C)[C@]1(C)CC2 (stereo partly drawn) [Compound 1537, Methyl 2α-hydroxy-3-oxo-urs-12-en-28-oate] | lowered cortisol production | – | 28.2 µg/mL (≈ 58.2 µM) | inhibited cortisol production in a dose-dependent manner | ~28 µg/mL (≈ 57.8 µM) |
